Measurements published in patent US20250145632A1, “Pyrimidine Heterocyclic Compound, Preparation Method Thereof and use Thereof in Medicine” (INSILICO MEDICINE IP LIMITED, priority 2021, published 2025).

What was measured:
[1] = system: HCC70 human breast ductal cancer cells; assay: HCC70 tumor cell proliferation inhibition (CellTiter-Glo); format: cell-based; details: 3 d culture
Experimental: HCC70 was purchased from ATCC; article No.: CRL-2315; RPMI1640 was purchased from Gibco; article No.: 11875-093; Pancreatin (including EDTA) was purchased from Gibco; article No.: 25200-072; FBS was purchased from Gibco; article No.: 10099-141C; CellTiter-Glo was purchased from Promega; article No.: G7573; DMSO was purchased from VWR AMRESCO; article No.: 0231-500ML; Staurosporine was purchased from Selleck; article No.: S1421; a cell counter was purchased from CHEMOMETEC; model: NC-200; and a microplate reader was purchased from PerkinElmer; Model: Envison.
(§1) HCC70 was human breast ductal cancer cells cultured in an RPMI-1640 culture medium containing 10% FBS. Cells in logarithmic phase were taken, and the cells were subjected to digesting, collecting and counting with pancreatin-EDTA, 2000 HCC70 cells/well were inoculated in a 384-well cell plate, and were cultured in 5% CO2 overnight. A 1000× compound stock solution with 3.16 times of gradient concentration was prepared with DMSO, and was diluted 100 times to 10× compound stock solution with a culture medium, and 10× compound stock solution was added into each cell culture well on the next day after cell inoculation, wherein the final concentration was 1×, and the DMSO content was 0.1%. The cell group was treated with DMSO as an experimental control (control), and the cell group was treated with 5 μM of Staurosporine as a blank control (blank).

[2] = system: OVCAR-3 human ovarian adenocarcinoma cells; assay: OVCAR-3 tumor cell proliferation inhibition (CellTiter-Glo); format: cell-based; details: 3 d culture
Experimental: OVCAR-3 was purchased from ATCC; article No.: HTB-161; RPMI1640 was purchased from Gibco; article No.: 11875-093; Pancreatin (including EDTA) was purchased from Gibco; article No.: 25200-072; FBS was purchased from Gibco; Article No.: 10091-148; CellTiter-Glo was purchased from Promega; article No.: G7573; Bovine insulin was purchased from absin; article No.: abs9169; DMSO was purchased from VWR AMRESCO; article No.: 0231-500ML; Staurosporine was purchased from Selleck; article No.: S1421; a cell counter was purchased from CHEMOMETEC; model: NC-200; and a microplate reader was purchased from PerkinElmer; Model: Envison.
as §1, with “OVCAR-3” for “HCC70”, “ovarian adenocarcinoma” for “breast ductal cancer”, “20% FBS and 0.01 mg/mL of Bovine insulin.” for “10% FBS.”

Compound	IC50 [1] [nM]	IC50 [2] [nM]
CP(C)(=O)c1c2ccc3c(c[nH]c13)-c1nc(ncc1C(F)(F)F)N[C@H]1CC[C@@H](C1)NCC[C@@H](F)CNC2=O (single isomer, unassigned) [Compound Z68-1]	10.3	35.8
CP(C)(=O)c1c2ccc3c(c[nH]c13)-c1nc(ncc1C(F)(F)F)N[C@H]1CC[C@@H](C1)NCC[C@H](F)CNC2=O (single isomer, unassigned) [Compound Z68-2]	3.18	8.84
CN1C[C@H](F)CCN[C@H]2CC[C@@H](C2)Nc2ncc(C(F)(F)F)c(n2)-c2c[nH]c3c(P(C)(C)=O)c(ccc23)C1=O (single isomer, unassigned) [Compound Z76]	21.9	31.5
CP(C)(=O)c1c2ccc3c(c[nH]c13)-c1nc(ncc1C(F)(F)F)N[C@H]1CC[C@@H](C1)NCCCCCNC2=O [Compound Z6, (41 S,4^3S)-1^7-(dimethylphosphoryl)-2^5-(trifluoromethyl)-1^1H-3,5,11-triaza-1(3,6)-indola-2(4,2)-pyrimidina-4(1,3)-cyclopentanacyclododecaphan-12-one]	222	
CP(C)(=O)c1c2ccc3c(c[nH]c13)-c1nc(ncc1C(F)(F)F)N[C@H]1CCC[C@@H](C1)NCCCCNC2=O [Compound Z9, (4^1S,4^3S)-1^7-(dimethylphosphoryl)-2^5-(trifluoromethyl)-1^1H-3,5,10-triaza-1(3,6)-indola-2(4,2)-pyrimidina-4(1,3)-cyclohexanacycloundecaphan-11-one]	99.8	
CP(C)(=O)c1c2ccc3c(c[nH]c13)-c1nc(ncc1C(F)(F)F)N[C@H]1CC[C@@H](C1)NCCCNC2=O [Compound Z10, (4^1S, 4^3S)-1^7-(dimethylphosphoryl)-2^5-(trifluoromethyl)-1^1H-3,5,9-triaza-1(3,6)-indola-2(4,2)-pyrimidina-4(1,3)-cyclopentanacyclodecaphan-10-one]	162	
O=C1NCCCCN[C@H]2CCC(C2)Nc2ncc(C(F)(F)F)c(n2)-c2c[nH]c3c(Cl)c1ccc23 [Compound Z11, (4^1S,43S)-1^7-chloro-2^5-(trifluoromethyl)-1^1H-3,5,10-triaza-1(3,6)-indola-2(4,2)-pyrimidina-4(1,3)-cyclopentanacycloundecaphan-11-one]	186	
CN1CCCCNC(=O)c2ccc3c(c[nH]c3c2P(C)(C)=O)-c2nc(ncc2C(F)(F)F)N[C@H]2CC[C@H]1C2 [Compound Z16, (4^1S,43S)-1^7-(dimethylphosphoryl)-5-methyl-2^5-(trifluoromethyl)-1^1H-3,5,10-triaza-1(3,6)-indola-2(4,2)-pyrimidina-4(1,3)-cyclopentanacycloundecaphan-11-one]	23	
CP(C)(=O)c1c2ccc3c(c[nH]c13)-c1nc(ncc1C(F)(F)F)N[C@H]1CC[C@@H](C1)NCCC(F)(F)CNC2=O [Compound Z19, (4^1S,43S)-17-(dimethylphosphoryl)-8,8-difluoro-2^5-(trifluoromethyl)-1^1H-3,5,10-triaza-1(3,6)-indola-2(4,2)-pyrimidina-4(1,3)-cyclopentanacycloundecaphan-11-one]	15.4	
N#Cc1c2ccc3c(c[nH]c13)-c1nc(ncc1C(F)(F)F)N[C@H]1CC[C@@H](C1)NCCCCNC2=O [Compound Z23, (4^1S,4^3S)-11-oxo-2^5-(trifluoromethyl)-1^1H-3,5,10-triaza-1(3,6)-indola-2(4,2)-pyrimidina-4(1,3)-cyclopentanacycloundecaphane-17-carbonitrile]	66.6	135
CN1CCCCN(C)[C@H]2CC[C@@H](C2)Nc2ncc(C(F)(F)F)c(n2)-c2c[nH]c3c(P(C)(C)=O)c(ccc23)C1=O [Compound Z27, (4^1S,4^3S)-1^7-(dimethylphosphoryl)-5,10-dimethyl-2^5-(trifluoromethyl)-1^1H-3,5,10-triaza-1(3,6)-indola-2(4,2)-pyrimidina-4(1,3)-cyclopentanacycloundecaphan-11-one]	9.7	
CC1CCCNC(=O)c2ccc3c(c[nH]c3c2P(C)(C)=O)-c2nc(ncc2C(F)(F)F)N[C@H]2CC[C@@H](C2)N1 (stereo partly drawn) [Compound Z58, (4^1S,4^3S)-1^7-(dimethylphosphoryl)-6-methyl-2^5-(trifluoromethyl)-1^1H-3,5,10-triaza-1(3,6)-indola-2(4,2)-pyrimidina-4(1,3)-cyclopentanacycloundecaphan-11-one]	233	
CP(C)(=O)c1c2ccc3c(c[nH]c13)-c1nc(ncc1C(F)(F)F)N[C@H]1CC[C@@H](C1)NCCCCCCNC2=O [Compound Z59, (4^1S,4^3S)-1^7-(dimethylphosphoryl)-2^5-(trifluoromethyl)-1^1H-3,5,12-triaza-1(3,6)-indola-2(4,2)-pyrimidina-4(1,3)-cyclopentanacyclotridecaphan-13-one]	422	
CN1CCOCCNC(=O)c2ccc3c(c[nH]c3c2P(C)(C)=O)-c2nc(ncc2C(F)(F)F)NC2CCC1C2 [Compound Z60, (4^1S,43S)-17-(dimethylphosphoryl)-5-methyl-2^5-(trifluoromethyl)-1^1H-8-oxa-3,5,11-triaza-1(3,6)-indola-2(4,2)-pyrimidina-4(1,3)-cyclopentanacyclododecaphan-12-one]	89	
CN1CCCCNC2CCC(C2)Nc2ncc(C(F)(F)F)c(n2)-c2c[nH]c3c(P(C)(C)=O)c(ccc23)C1=O (stereo not drawn) [Compound Z62, (41 S,4^3S)-1^7-(dimethylphosphoryl)-10-methyl-2^5-(trifluoromethyl)-1^1H-3,5,10-triaza-1(3,6)-indola-2(4,2)-pyrimidina-4(1,3)-cyclopentanacycloundecaphan-11-one]	24.6	15.9
CN1CCOCCNC2CCC(C2)Nc2ncc(C(F)(F)F)c(n2)-c2c[nH]c3c(S(C)(=O)=O)c(ccc23)C1=O (stereo not drawn) [Compound Z72, (4^1S,4^3S)-11-methyl-1^7-(methylsulfonyl)-2^5-(trifluoromethyl)-1^1H-8-oxa-3,5,11-triaza-1(3,6)-indola-2(4,2)-pyrimidina-4(1,3)-cyclopentanacyclododecaphan-12-one]	869	
CN1CCC(F)CN(C)C2CC[C@@H](C2)Nc2ncc(C(F)(F)F)c(n2)-c2c[nH]c3c(P(C)(C)=O)c(ccc23)C1=O (stereo partly drawn) [Compound Z87, (4^1S)-1^7-(dimethylphosphoryl)-7-fluoro-5,10-dimethyl-2^5-(trifluoromethyl)-1^1H-3,5,10-triaza-1(3,6)-indola-2(4,2)-pyrimidina-4(1,3)-cyclopentanacycloundecaphan-11-one]	243	
CN1CCC(F)CN(C)C2CC[C@@H](C2)Nc2ncc(C(F)(F)F)c(n2)-c2c[nH]c3c(P(C)(C)=O)c(ccc23)C1=O (stereo partly drawn) [Compound Z88, (4^1S)-1^7-(dimethylphosphoryl)-7-fluoro-5,10-dimethyl-2^5-(trifluoromethyl)-1^1H-3,5,10-triaza-1(3,6)-indola-2(4,2)-pyrimidina-4(1,3)-cyclopentanacycloundecaphan-11-one]	241	
(4^3S)-1^7-(dimethylphosphoryl)-2^5-(trifluoromethyl)-1^1H-3,11-diaza-1(3,6)-indola-2(4,2)-pyrimidina-4(3,1)-piperidinacyclododecaphan-12-one [Compound Z61]	390	
